Data on two molecules can be found in PMC2533696 (PLoS Pathogens, 2008).

Where a SMILES comes first, the peptide text is derived from it. Where no end group is shown, it is not given here.

Experiment [1] has as its target Clostridium botulinum neurotoxin serotype A truncated light chain (residues 1 to 424), Balc424 (Clostridium botulinum, UniProt P0DPI0). Nature of the experiment: biochemical. Particulars: 37°C, 30 min.
Another experiment addresses BoNT/A. Conditions: read-out: Kι; cited from earlier work.

Clostridium botulinum neurotoxin serotype A truncated light chain (residues 1 to 424), Balc424, sequence (P0DPI0 1-424 limits assumed): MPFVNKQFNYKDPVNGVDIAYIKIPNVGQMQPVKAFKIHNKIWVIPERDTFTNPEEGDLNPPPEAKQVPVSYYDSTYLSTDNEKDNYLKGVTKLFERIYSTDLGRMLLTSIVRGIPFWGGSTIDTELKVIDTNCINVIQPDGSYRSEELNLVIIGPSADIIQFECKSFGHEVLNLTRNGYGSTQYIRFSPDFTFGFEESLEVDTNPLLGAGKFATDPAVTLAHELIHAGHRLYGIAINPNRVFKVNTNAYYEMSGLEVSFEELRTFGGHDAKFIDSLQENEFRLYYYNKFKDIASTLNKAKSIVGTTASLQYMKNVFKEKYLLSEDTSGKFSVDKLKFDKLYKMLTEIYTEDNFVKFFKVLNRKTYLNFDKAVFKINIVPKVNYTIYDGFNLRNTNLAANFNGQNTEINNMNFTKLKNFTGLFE

As usually defined, the IC50 is the point on the concentration scale where inhibition reaches its midpoint. A high value points to weaker potency in that assay. In experiment [1], `CSCC[C@H](NC(=O)[C@H](CCCCN)NC(=O)[C@@H](NC(=O)[C@H](C)NC(=O)[C@H](CCCNC(=N)N)NC(=O)[C@@H](N)CCC(N)=O)[C@@H](C)O)C(N)=O` [QRATKM] (H-QRATKM-NH2) showed an IC50 of 133 µM.
For Ac-CRATKML, the Ki on BoNT/A was 1.9 µM.
